Test results as given in patent US20240174618A1, “SUBSTITUTED (2-HETEROARYLOXYPHENYL)SULFONATES, SALTS THEREOF AND THEIR USE AS HERBICIDAL AGENTS” (Bayer Aktiengesellschaft, priority 2021, published 2024).

Tests used:
Format in all cases: in vivo
[1] = tested on: Alopecurus myosuroides (ALOMY); test: B. Herbicidal post-emergence efficacy, ALOMY; details: rated visually after about 3 weeks
Protocol: Seeds of mono- and dicotyledonous weed plants were placed in plastic pots in sandy loam soil (doubly sown with in each case one species of mono- or dicotyledonous weed plants per pot), covered with soil and cultivated in a greenhouse under controlled growth conditions. 2 to 3 weeks after sowing, the test plants were treated at the one-leaf stage. The compounds of the invention, formulated in the form of wettable powders (WP) or as emulsion concentrates (EC), were applied onto the green parts of the plants as aqueous suspension or emulsion with addition of 0.5% additive at a water application rate of 600 liters per hectare (converted). After the test plants had been kept in the greenhouse under optimum growth conditions for about 3 weeks, the activity of the preparations was rated visually in comparison to untreated controls.
For example, • 100% efficacy=plants have died, • 0% efficacy=like untreated control plants
Tables B1a to B12c below show the effects of selected inventive compounds of the general formula (I) according to table 1 on various harmful plants at an application rate corresponding to 1280 g/ha or less, which were obtained by the experimental procedure mentioned above.

[2] = tested on: Amaranthus retroflexus (AMARE); test: C. Herbicidal pre-emergence efficacy, AMARE; details: scored after about 3 weeks
How it was run: (§1)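 Pre-emergence test: formulated compounds sprayed as aqueous suspension or emulsion with 0.5% additive at 600 l/ha onto soil covering sown seeds, at rates corresponding to 320 g/ha or less. After about 3 weeks in greenhouse, efficacy scored visually as percent versus untreated controls (100% = plants dead).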

[3] = tested on: Avena fatua (AVEFA); test: C. Herbicidal pre-emergence efficacy, AVEFA; details: 320 g/ha, scored after about 3 weeks
From the text: Seeds of monocotyledonous and dicotyledonous weed plants and crop plants were placed in plastic or organic planting pots and covered with soil. The compounds of the invention, formulated in the form of wettable powders (WP) or as emulsion concentrates (EC), were then applied to the surface of the covering soil as aqueous suspension or emulsion with addition of 0.5% additive at a water application rate equivalent to 600 l/ha (converted). After the treatment, the pots were placed in a greenhouse and kept under good growth conditions for the test plants. After about 3 weeks, the efficacy of the preparations was scored visually in comparison with untreated controls as percentages. For example, • 100% efficacy=plants have died, • 0% efficacy=like untreated control plants.
Tables C1a to C14b below show the effects of selected compounds of the general formula (I) according to table 1 on various harmful plants at an application rate corresponding to 320 g/ha or less, which were obtained by the experimental procedure mentioned above.

[4] = tested on: Matricaria inodora (MATIN); test: C. Herbicidal pre-emergence efficacy, MATIN; details: scored after about 3 weeks
How it was run: as §1

[5] = tested on: Veronica persica (VERPE); test: C. Herbicidal pre-emergence efficacy, VERPE; details: scored after about 3 weeks
How it was run: as §1

[6] = tested on: Veronica persica (VERPE); test: E. Herbicidal post-emergence efficacy, VERPE
How it was run: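 Visual scoring against untreated plants was done roughly 3 weeks after spraying (0% = no effect, 100% = plants dead). Spray application at 320 g/ha or lower, 600 l/ha water with 0.5% additive, was made onto green parts of one-leaf-stage greenhouse plants grown 2-3 weeks in sandy loam.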

[7] = tested on: Zea mays (ZEAMX); test: F. Post-emergence effect on useful plants, ZEAMX; details: useful plant, application rate 80 g/ha
How it was run: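 Visual efficacy rating versus untreated plants, from 0% (no effect) to 100% (plants died), made about 3 weeks after post-emergence treatment. Formulated compounds (WP or EC, 0.5% additive, 600 l/ha water) were sprayed onto greenhouse-grown crops at the one-leaf stage, 2-3 weeks after sowing.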

[8] = tested on: Zea mays (ZEAMX); test: D. Pre-emergence effect on useful plants, ZEAMX; details: useful plant, application rate 80 g/ha
How it was run: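 Seeds sown in pots and covered with soil; WP or EC formulations sprayed on the soil surface as aqueous suspension/emulsion with 0.5% additive at 600 l/ha water. Plants grown in greenhouse; crop damage scored visually after about 3 weeks as % versus untreated controls (100% = dead, 0% = like control).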

[9] = tested on: Digitaria sanguinalis (DIGSA); test: B. Herbicidal post-emergence efficacy, DIGSA; details: rated visually after about 3 weeks
How it was run: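 Readout: visual % kill vs untreated, ~3 wk post-spray. Plants in sandy loam pots, treated at one-leaf stage; spray = WP/EC in water + 0.5% additive, 600 L/ha, dose ≤1280 g/ha.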

[10] = tested on: Digitaria sanguinalis (DIGSA); test: E. Herbicidal post-emergence efficacy, DIGSA
Protocol: Seeds of monocotyledonous and dicotyledonous weeds and crop plants were placed in sandy loam in plastic or organic planting pots, covered with soil and cultivated in a greenhouse under controlled growth conditions. 2 to 3 weeks after sowing, the test plants were treated at the one-leaf stage. The compounds of the invention, formulated in the form of wettable powders (WP) or as emulsion concentrates (EC), were then sprayed onto the green parts of the plants as aqueous suspension or emulsion with addition of 0.5% additive at a water application rate of 600 l/ha (converted). After the test plants had been kept in the greenhouse under optimum growth conditions for about 3 weeks, the activity of the preparations was rated visually in comparison to untreated controls.
For example, • 100% efficacy=plants have died, • 0% action=like untreated control plants.
Tables E1a to E12b below show the effects of selected compounds of the general formula (I) according to table 1 on various harmful plants at an application rate corresponding to 320 g/ha or less, which were obtained by the experimental procedure mentioned above.

Row | Structure (SMILES) | Post-emergence efficacy against ALOMY in % ([1]; 320 g/ha) [%] | Post-emergence efficacy against ALOMY in % ([1]; 1280 g/ha) [%] | Pre-emergence efficacy against AMARE ([2]; 80 g/ha) [%] | Pre-emergence efficacy against AMARE ([2]; 320 g/ha) [%] | Pre-emergence efficacy against AVEFA [3] [%] | Pre-emergence efficacy against MATIN ([4]; 320 g/ha) [%] | Pre-emergence efficacy against VERPE ([5]; 80 g/ha) [%] | Pre-emergence efficacy against VERPE ([5]; 320 g/ha) [%] | Post-emergence efficacy against VERPE in % ([6]; application rate 80 g/ha) [%] | Post-emergence efficacy against VERPE in % ([6]; application rate 320 g/ha) [%] | Post-emergence efficacy against ZEAMX in % [7] [%] | Pre-emergence efficacy against ZEAMX in % [8] [%] | Post-emergence efficacy against DIGSA in % ([9]; 320 g/ha) [%] | Post-emergence efficacy against DIGSA in % ([9]; 1280 g/ha) [%] | Post-emergence efficacy against DIGSA in % ([10]; application rate 320 g/ha) [%] | Pre-emergence efficacy against MATIN ([4]; 80 g/ha) [%] | Post-emergence efficacy against DIGSA in % ([10]; application rate 80 g/ha) [%]
1 | O=S(=O)(CCCCl)Oc1ccccc1Oc1ncc(Cl)cn1 [Example I-2] | 90 | 90 | 100 | 100 | 100 | 100 | 90 | 100 | 100 | 100 | 20 | – | – | – | – | – | –
2 | O=S(=O)(CCCCl)Oc1ccccc1Oc1ncc(F)cn1 [Example I-5] | – | 100 | 100 | 100 | 80 | 90 | 100 | 100 | 90 | 100 | – | 20 | – | – | – | – | –
3 | O=S(=O)(CCCCl)Oc1c(F)cccc1Oc1ncc(Cl)cn1 [Example I-14] | 100 | 100 | 100 | 100 | 80 | – | 100 | 100 | 100 | 100 | – | – | 100 | 100 | – | – | –
4 | O=S(=O)(CC1CC1)Oc1ccccc1Oc1ncc(Cl)cn1 [Example I-23] | 90 | 90 | 100 | 100 | 90 | 100 | 100 | 100 | 90 | 100 | 20 | 0 | 90 | 100 | 100 | – | –
5 | O=S(=O)(CCCC(F)(F)F)Oc1c(F)cccc1Oc1ncc(F)cn1 [Example I-42] | 100 | 100 | 100 | 100 | 100 | 100 | 100 | 100 | 100 | 100 | – | – | – | – | 90 | 90 | 90
6 | O=S(=O)(CCC(F)(F)F)Oc1c(F)cccc1Oc1ncc(F)cn1 [Example I-47] | 90 | 100 | 100 | 100 | 100 | 100 | – | – | 100 | 100 | – | – | – | – | – | 90 | –
7 | O=S(=O)(CCC(F)(F)F)Oc1c(F)cccc1Oc1ncc(Cl)cn1 [Example I-48] | – | 90 | 100 | 100 | 100 | 100 | – | – | 100 | 100 | 0 | 0 | 90 | 90 | 100 | 100 | –
8 | O=S(=O)(CC1CC(F)(F)C1)Oc1c(F)cccc1Oc1ncc(Cl)cn1 [Example I-53] | 90 | 90 | 100 | 100 | 80 | 90 | 100 | 100 | 100 | 100 | – | – | 90 | 90 | 90 | – | 90
